Calls of active or inactive are those of the source. How the calls were made is not given here.
System: CCRIS mutagenicity, Ames/micronucleus/aberration tests
Experiment: CCRIS mutagenicity studies
[1] = Test System: AMES SALMONELLA TYPHIMURIUM, Strain/Indicator: TA100, Metabolic Activation: NONE, Method: PREINCUBATION
[2] = Test System: AMES SALMONELLA TYPHIMURIUM, Strain/Indicator: TA1535, Metabolic Activation: NONE, Method: PREINCUBATION
[3] = Test System: AMES SALMONELLA TYPHIMURIUM, Strain/Indicator: TA1535, Metabolic Activation: NONE, Method: STANDARD PLATE
[4] = Test System: AMES SALMONELLA TYPHIMURIUM, Strain/Indicator: TA98, Metabolic Activation: NONE, Method: PREINCUBATION
[5] = Test System: AMES SALMONELLA TYPHIMURIUM, Strain/Indicator: TA98, Metabolic Activation: NONE, Method: STANDARD PLATE
[6] = Test System: AMES SALMONELLA TYPHIMURIUM, Strain/Indicator: TA98, Metabolic Activation: RAT, LIVER, S-9, AROCLOR 1254, Method: STANDARD PLATE
[7] = Test System: AMES SALMONELLA TYPHIMURIUM, Strain/Indicator: TA100, Metabolic Activation: NONE, Method: STANDARD PLATE
[8] = Test System: AMES SALMONELLA TYPHIMURIUM, Strain/Indicator: TA100, Metabolic Activation: RAT, LIVER, S-9, AROCLOR 1254, Method: STANDARD PLATE

Compound: CCCN(N=O)/C(N)=N/[N+](=O)[O-]
- mutagenic call [1]: active; positive
- mutagenic call (Test System: AMES SALMONELLA TYPHIMURIUM, Strain/Indicator: TA100, Metabolic Activation: RAT, LIVER, S-9, KC500 OR PHENOBARBITAL, Method: LIQUID SUSPENSION): active; positive
- mutagenic call [2]: active; positive
- mutagenic call [3]: active; positive
- mutagenic call (Test System: AMES SALMONELLA TYPHIMURIUM, Strain/Indicator: TA1535, Metabolic Activation: RAT, LIVER, S-9, KC500 OR PHENOBARBITAL, Method: LIQUID SUSPENSION): active; positive
- mutagenic call (Test System: AMES SALMONELLA TYPHIMURIUM, Strain/Indicator: YG7104, Metabolic Activation: NONE, Method: PREINCUBATION): active; positive
- mutagenic call (Test System: AMES SALMONELLA TYPHIMURIUM, Strain/Indicator: YG7108, Metabolic Activation: NONE, Method: PREINCUBATION): active; positive
- mutagenic call (Test System: AMES SALMONELLA TYPHIMURIUM, Strain/Indicator: YG7112, Metabolic Activation: NONE, Method: PREINCUBATION): active; positive
- mutagenic call (Test System: AMES SALMONELLA TYPHIMURIUM, Strain/Indicator: YG7113, Metabolic Activation: NONE, Method: PREINCUBATION): active; positive

Compound: Nc1nc2c([nH]c(=O)n2[C@@H]2O[C@H](CO)[C@@H](O)[C@H]2O)c(=O)[nH]1
- mutagenic call [1]: inactive; negative

Compound: CC1=CC(=O)C=C2CC[C@@H]3[C@H](CC[C@]4(C)C(=O)CC[C@@H]34)[C@@]12C
- mutagenic call (End Point: IN VITRO CHROMOSOMAL ABERRATIONS, Test System: HUMAN PERIPHERAL LYMPHOCYTES, Metabolic Activation: NONE): inactive; negative
- mutagenic call (End Point: IN VITRO CHROMOSOMAL ABERRATIONS, Test System: HUMAN PERIPHERAL LYMPHOCYTES, Metabolic Activation: RAT, LIVER, S-9, AROCLOR 1254): inactive; negative
- mutagenic call (End Point: IN VIVO MICRONUCLEUS, Test System: BONE MARROW POLYCHROMATIC ERYTHROCYTES, Species: MOUSE, Strain/Sex: NMRI/MALE, FEMALE, Route: INTRAGASTRIC): inactive; negative
- mutagenic call [4]: inactive; negative
- mutagenic call [5]: inactive; negative
- mutagenic call (Test System: AMES SALMONELLA TYPHIMURIUM, Strain/Indicator: TA98, Metabolic Activation: RAT, LIVER, S-9, AROCLOR 1254, Method: PREINCUBATION): inactive; negative
- mutagenic call [6]: inactive; negative
- mutagenic call [1]: inactive; negative
- mutagenic call [7]: inactive; negative
- mutagenic call (Test System: AMES SALMONELLA TYPHIMURIUM, Strain/Indicator: TA100, Metabolic Activation: RAT, LIVER, S-9, AROCLOR 1254, Method: PREINCUBATION): inactive; negative
- mutagenic call [8]: inactive; negative
- mutagenic call [2]: inactive; negative
- mutagenic call [3]: inactive; negative
- mutagenic call (Test System: AMES SALMONELLA TYPHIMURIUM, Strain/Indicator: TA1535, Metabolic Activation: RAT, LIVER, S-9, AROCLOR 1254, Method: PREINCUBATION): inactive; negative
- mutagenic call (Test System: AMES SALMONELLA TYPHIMURIUM, Strain/Indicator: TA1535, Metabolic Activation: RAT, LIVER, S-9, AROCLOR 1254, Method: STANDARD PLATE): inactive; negative
- mutagenic call (Test System: AMES SALMONELLA TYPHIMURIUM, Strain/Indicator: TA1537, Metabolic Activation: NONE, Method: PREINCUBATION): inactive; negative
- mutagenic call (Test System: AMES SALMONELLA TYPHIMURIUM, Strain/Indicator: TA1537, Metabolic Activation: NONE, Method: STANDARD PLATE): inactive; negative
- mutagenic call (Test System: AMES SALMONELLA TYPHIMURIUM, Strain/Indicator: TA1537, Metabolic Activation: RAT, LIVER, S-9, AROCLOR 1254, Method: PREINCUBATION): inactive; negative
- mutagenic call (Test System: AMES SALMONELLA TYPHIMURIUM, Strain/Indicator: TA1537, Metabolic Activation: RAT, LIVER, S-9, AROCLOR 1254, Method: STANDARD PLATE): inactive; negative
- mutagenic call (Test System: AMES SALMONELLA TYPHIMURIUM, Strain/Indicator: TA1538, Metabolic Activation: NONE, Method: PREINCUBATION): inactive; negative
- mutagenic call (Test System: AMES SALMONELLA TYPHIMURIUM, Strain/Indicator: TA1538, Metabolic Activation: NONE, Method: STANDARD PLATE): inactive; negative
- mutagenic call (Test System: AMES SALMONELLA TYPHIMURIUM, Strain/Indicator: TA1538, Metabolic Activation: RAT, LIVER, S-9, AROCLOR 1254, Method: PREINCUBATION): inactive; negative
- mutagenic call (Test System: AMES SALMONELLA TYPHIMURIUM, Strain/Indicator: TA1538, Metabolic Activation: RAT, LIVER, S-9, AROCLOR 1254, Method: STANDARD PLATE): inactive; negative
- mutagenic call (Test System: CHINESE HAMSTER V-79, Strain/Indicator: V-79 (HGPRT)/6-THIOGUANINE, Metabolic Activation: NONE): inactive; negative
- mutagenic call (Test System: CHINESE HAMSTER V-79, Strain/Indicator: V-79 (HGPRT)/6-THIOGUANINE, Metabolic Activation: RAT, LIVER, S-9, AROCLOR 1254): inactive; negative

Compound: O=C(O)CCC(=O)Nc1cc(Cl)cc(Cl)c1
- mutagenic call [5]: inactive; negative
- mutagenic call [6]: inactive; negative
- mutagenic call [7]: inactive; negative
- mutagenic call [8]: inactive; negative

Compound: CC1=C(C(=O)OCCN(Cc2ccccc2)c2ccccc2)C(c2cccc([N+](=O)[O-])c2)C(P2(=O)OCC(C)(C)CO2)=C(C)N1 (centres undefined)
- mutagenic call (Test System: AMES SALMONELLA TYPHIMURIUM, Strain/Indicator: TA98, Metabolic Activation: NONE): inactive; negative
- mutagenic call (Test System: AMES SALMONELLA TYPHIMURIUM, Strain/Indicator: TA98, Metabolic Activation: RAT, LIVER, S-9, PHENOBARBITAL AND 5,6-BENZOFLAVONE): inactive; negative
- mutagenic call (Test System: AMES SALMONELLA TYPHIMURIUM, Strain/Indicator: TA100, Metabolic Activation: NONE): inactive; negative
- mutagenic call (Test System: AMES SALMONELLA TYPHIMURIUM, Strain/Indicator: TA100, Metabolic Activation: RAT, LIVER, S-9, PHENOBARBITAL AND 5,6-BENZOFLAVONE): inactive; negative
- mutagenic call (Test System: AMES SALMONELLA TYPHIMURIUM, Strain/Indicator: TA1535, Metabolic Activation: NONE): inactive; negative
- mutagenic call (Test System: AMES SALMONELLA TYPHIMURIUM, Strain/Indicator: TA1535, Metabolic Activation: RAT, LIVER, S-9, PHENOBARBITAL AND 5,6-BENZOFLAVONE): inactive; negative
- mutagenic call (Test System: AMES SALMONELLA TYPHIMURIUM, Strain/Indicator: TA1537, Metabolic Activation: NONE): inactive; negative
- mutagenic call (Test System: AMES SALMONELLA TYPHIMURIUM, Strain/Indicator: TA1537, Metabolic Activation: RAT, LIVER, S-9, PHENOBARBITAL AND 5,6-BENZOFLAVONE): inactive; negative
- mutagenic call (Test System: E.COLI, Strain/Indicator: WP2 UVRA, Metabolic Activation: NONE): inactive; negative

Compound: CCSC(=O)N(CC)C1CCCCC1
- mutagenic call (End Point: In vitro chromosomal aberrations, Test System: Human lymphocytes, Metabolic Activation: None): inactive; negative
- mutagenic call (End Point: In vitro chromosomal aberrations, Test System: Human lymphocytes, Metabolic Activation: S-9 (No additional details provided in source)): inactive; negative
- mutagenic call (End Point: In vivo micronucleus, Test System: Bone marrow, Species: Mouse, Strain/Sex: CD/Female, Route: Oral): inactive; negative
- mutagenic call (End Point: In vivo micronucleus, Test System: Bone marrow, Species: Mouse, Strain/Sex: CD/Male, Route: Oral): inactive; negative

Compound: CC1CC(=O)O1 (centres undefined)
- mutagenic call (Test System: AMES SALMONELLA TYPHIMURIUM, Strain/Indicator: G46, Metabolic Activation: NONE, Method: STANDARD PLATE): active; positive
- mutagenic call (Test System: AMES SALMONELLA TYPHIMURIUM, Strain/Indicator: TA98, Metabolic Activation: HAMSTER, LIVER, S-9, AROCLOR 1254 (30%), Method: PREINCUBATION): active; positive
- mutagenic call [4]: active; positive
- mutagenic call (Test System: AMES SALMONELLA TYPHIMURIUM, Strain/Indicator: TA98, Metabolic Activation: RAT, LIVER, S-9, AROCLOR 1254 (30%), Method: PREINCUBATION): active; positive
- mutagenic call (Test System: AMES SALMONELLA TYPHIMURIUM, Strain/Indicator: TA100, Metabolic Activation: HAMSTER, LIVER, S-9, AROCLOR 1254 (30%), Method: PREINCUBATION): active; positive
- mutagenic call [1]: active; positive
- mutagenic call (Test System: AMES SALMONELLA TYPHIMURIUM, Strain/Indicator: TA100, Metabolic Activation: RAT, LIVER, S-9, AROCLOR 1254 (30%), Method: PREINCUBATION): active; positive
